pEC50: −log10 of the molar value. Records with an inconclusive call do not appear. Active and inactive are the calls of the source. The rule behind the calls is not given here.
What follows are molecules tested on Chlamydomonas reinhardtii, Nile Red lipid fluorescence, 72 h (assay: algal triacylglycerol accumulation inducers, dose response, qHTS, Chlamydomonas reinhardtii (AID 1159536)).

| Compound | pEC50 | EC50 |
| --- | --- | --- |
| Clc1ccccc1OCCCCN1CCOCC1 | 5.27 | – |
| CCC1CCC(N2CCN(CC)CC2)CC1 (stereo not given) | 5.60 | – |
| COc1ccc(CN(C)C2CCCCC2)cc1 | 5.56 | – |
| Cc1ccc(C(=O)Nc2ccc(Cl)cc2C)cc1C | – | 16.6 µM (inactive) |
| CCN(CC(O)COc1ccc(Br)cc1)C1CCCCC1 (stereo not given) | 4.99 | – |
| Cc1ccc(C(=O)Nc2ccc3oc(-c4ccncc4)nc3c2)cc1C | 5.80 | – |
| C1=CC2CC1CC2CN1CCN(c2ccccc2)CC1 (stereo not given) | 7.07 | – |
| C/C=C(\C)CN1CCN(c2ccc(C)cc2)CC1 | 5.38 | – |
| Oc1ccc(CN2CCN(Cc3ccccc3)CC2)cc1 | 4.95 | – |
| C=CCn1c(SCC(=O)NCCc2ccccc2)nnc1-c1ccc(Cl)cc1Cl | 5.39 | – |
| COc1ccc(C(=O)Nc2sc3c(c2C(N)=O)CCC(C)C3)c(OC)c1 (stereo not given) | – | 15.8 µM (inactive) |
| Clc1ccccc1-c1nnc(-c2ccccc2)o1 | 5.57 | – |
| Cc1cccc(N2CCN(Cc3ccc([N+](=O)[O-])cc3)CC2)c1C | 4.96 | – |
| COc1ccc(NC(=O)CCC2CCCCC2)c([N+](=O)[O-])c1 | 5.17 | – |
| OCCN1CCN(C2C3CC4CC(C3)CC2C4)CC1 (stereo not given) | 5.37 | – |
| CN1CCN(CCCOc2cc(Cl)ccc2Cl)CC1 | 4.85 | – |
| CCN1CCN(C2CCC(C)CC2)CC1 (stereo not given) | 5.00 | – |
| COc1cc(C(=O)Nc2ccc(S(=O)(=O)Nc3ncccn3)cc2)cc(OC)c1OC | – | 30.9 µM (inactive) |
| O=C(Nc1ccc([N+](=O)[O-])cc1)c1c(F)c(F)c(F)c(F)c1F | – | 1.36 µM (inactive) |
| CCC(C)c1ccc(OCCCN2CCN(C)CC2)cc1 (stereo not given) | 6.04 | – |
| O=S(=O)(c1ccc(F)cc1)n1cccc1 | – | 0.684 µM (inactive) |
| COc1ccccc1C(=O)N1CCN(C(=O)C(c2ccccc2)c2ccccc2)CC1 | – | 5.62 µM (inactive) |
| C=C(C)CN(CC)C(=O)C1CCN(Cc2ccc(Cl)cc2)CC1 | 6.19 | – |
| CC1CCCC(N2CCN(Cc3ccccc3)CC2)C1 (stereo not given) | 6.09 | – |
| CN1CCCN(CC2=CC[C@H]3C[C@@H]2C3(C)C)CC1 | 4.99 | – |

| Compound | pEC50 | EC50 |
| --- | --- | --- |
| CSc1ccc(CN2CCSCC2)cc1 | – | 10.5 µM (inactive) |
| CCc1cccc(OCC(=O)Nc2cc(OC)c(OC)cc2C(=O)O)c1 | 5.86 | – |
| COc1ccc(CN(C)C2CCCCC2)cc1C | 5.57 | – |
| COc1ccc(CN2CCN(CC3CC4C=CC3C4)CC2)cc1OC (stereo not given) | 5.41 | – |
| O=[N+]([O-])c1ccc(C(O)CN2CCN(Cc3ccccc3)CC2)cc1 (stereo not given) | 4.90 | – |
| CCc1ccc(CN2CCN(CC)CC2)cc1 | 5.33 | – |
| CN(CC(O)COc1ccc(Br)cc1)C1CCCCC1 (stereo not given) | 5.17 | – |
| Cc1c(NC(=O)COc2ccc(Br)cc2)cccc1[N+](=O)[O-] | – | 1.37 µM (inactive) |
| CN1CCN(CC#CC=C(c2ccccc2)c2ccccc2)CC1 | – | 2.57 µM (inactive) |
| CS(=O)(=O)N1CCN(C2C3CC4CC(C3)CC2C4)CC1 (stereo not given) | 5.33 | – |
| CC1(C)Oc2ccc(NC(=O)c3ccc(C(=O)c4ccccc4)cc3)cc2O1 | – | 8.94 µM (inactive) |
| O=C(CN1CCCCC1)Nc1ncc(Cc2ccc(Br)cc2)s1 | – | 1.27 µM (inactive) |
| Cc1ccc(C)c(N2CCN(C3CCc4ccccc4C3)CC2)c1 (stereo not given) | 4.78 | – |
| COc1ccccc1N1CCN(C2CCN(Cc3cccc(C)c3)CC2)CC1 | 4.98 | – |
| CN(CCC#N)C12CC3CC(CC(C3)C1)C2 | 5.06 | – |
| O=S(=O)(c1ccc(F)cc1)N1CCN(C2CCCCC2)CC1 | 4.99 | – |
| Cc1cccc(OCCCCN2CCOCC2)c1 | 5.57 | – |
| Cc1c(NC(=O)c2c(F)c(F)c(F)c(F)c2F)c(=O)n(-c2ccccc2)n1C | – | 19 µM (inactive) |
| Cc1ccc(S(=O)(=O)n2cccn2)cc1 | – | 12.9 µM (inactive) |
| Oc1ccc(CN2CCN(c3cccc(Cl)c3)CC2)cc1 | 7.56 | – |
| COc1ccc(OCCCN2CCCCC2)cc1 | 4.86 | – |
| Oc1ccc(Cl)cc1CN1CCN(Cc2ccccc2)CC1 | 5.45 | – |
| O=C(O)CCSCC(=O)c1ccc(NS(=O)(=O)c2ccccc2)cc1 | – | 30.6 µM (inactive) |
| CCc1ccc(CN2CCC(C(=O)N(CC)Cc3ccccc3)CC2)cc1 | 6.15 | – |
| O=C(Nc1ccccc1)Nc1ccccc1C(=O)N1CCOCC1 | – | 22.2 µM (inactive) |

From PubChem BioAssay AID1159536 (DiRusso Lab, Biochemistry Department, University of Nebraska, 2015)
